Laboratory results taken from paper PMC3446931, “Cyclohexyl Ketone Inhibitors of Pin1 Dock in a Trans-Diaxial Cyclohexane Conformation” (PLoS ONE, 2012).

Target: Pin1 (Homo sapiens, UniProt Q13526)
Experiment: alpha-chymotrypsin protease-coupled PPIase assay
Type: biochemical

Sequence of Pin1 (Q13526 whole entry): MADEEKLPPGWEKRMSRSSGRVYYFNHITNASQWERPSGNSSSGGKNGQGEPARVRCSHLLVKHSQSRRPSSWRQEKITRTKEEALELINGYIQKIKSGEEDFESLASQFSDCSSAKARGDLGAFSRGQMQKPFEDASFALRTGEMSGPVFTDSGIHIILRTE

Question: Which IC50 does the source give for `CC(=O)NC(COP(=O)(O)O)C(=O)C1CCCCC1C(=O)NCCc1c[nH]c2ccccc12` (racemic) [rac-2] here?
Answer: 61 ± 8 µM

Question: For `CC(=O)N[C@@H](COP(=O)(O)O)C(=O)[C@@H]1CCCC[C@H]1C(=O)NCCc1c[nH]c2ccccc12` [compound 1, 1], which IC50 is on record?
Answer: 260 ± 30 µM
